The text below walks through data of PubChem BioAssay AID2060912 (Molecular Pharmacology Branch, DTP, NCI, 2025).

Bounds are passed on as bounds.

The subject of the test is HUVEC/MSC spheroids viability. The test can be described thus: Human HUVEC/MSC cell line growth inhibition [KRAS2].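 As to viability, T/C: percent of DMSO vehicle control luminescence so 100% = untreated viability.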 Particulars: for viability, T/C: stronger effect = lower value. The text has this: Multicellular complex tumor spheroid response to RAS pathway inhibitors in combination with a targeted agents in patient-derived cell lines with oncogenic KRAS variants from multiple cancer types
A high-throughput screen of multi-cell type tumor spheroids was designed to identify active combinations of targeted small molecules and KRAS pathway inhibitors. Complex spheroids include a stromal component modeled by human endothelial cells (HUVEC) and fibroblasts modeled by human mesenchymal stem cells (MSCs). The concentration ranges selected for each drug and investigational agent were based upon clinically achievable concentrations if the clinical Cmax of the agent was known. * [This particular assayID is a followup dataset requested by reviewers of the manuscript. It is a test of the HUVEC and MSC without the tumor cells, and was conducted using different drug plates and a different plate layout.]
Compounds. The drugs and investigational agents: BI-3406 (NSC825286), BAY-293 (NSC824723), batoprotafib (TNO155; NSC825523), sotorasib (AMG 510; NSC818433), MRTX1257 (NSC819558), elimusertib (BAY 1895344; NSC800525), molibresib (GSK525762; NSC774829), temuterkib (LY3214996; NSC803410), venetoclax (NSC766270), alisertib (NSC759677), olaparib (NSC753686), talazoparib (NSC767125), erdafitinib (NSC781556), ipatasertib (NSC767898), cabozantinib (NSC761068), nintedanib (NSC756659), abemaciclib (NSC768073), docetaxel (NSC628503), trametinib (NSC758246), and sapanisertib (NSC764658) were obtained from the National Cancer Institute (NCI) Developmental Therapeutics Program Chemical Repository. The FDA-approved anticancer drug set is available from the Developmental Therapeutics Program. […] The stock solutions were prepared in dimethyl sulfoxide (DMSO, Sigma-Aldrich, St. Louis, MO, cat. D2650) at 800-fold the tested concentration and stored at -70 degrees C prior to their use. All drugs and investigational agents were tested over a range starting from a high concentration at or near the clinical Cmax and decreasing in half-log increments. If the clinical Cmax for an agent had not been determined, the highest concentration tested was 10 microM.
Cell Culture. All cells were maintained in an incubator at 37 degrees C and 5% CO2 with 95% humidity. The PDC lines were cultured according to standard operating procedures established by the NCI PDMR (https://pdmr.cancer.gov/sops/default.htm). Briefly, all PDCs were thawed and cultured in Matrigel-coated flasks prepared with a working solution of 1X Ham's F-12 nutrient mix, without supplementation (Invitrogen, Waltham, MA, cat. 11765054), 100 U/mL penicillin-streptomycin (Invitrogen, cat. 15140122), and 2.5% Matrigel (Corning Inc., Corning, NY, cat. 354248) for the first three passages. All PDCs were cultured in complete DMEM/F-12 media containing advanced DMEM/F-12 (Invitrogen, cat. 12634028), 4.9% defined fetal bovine serum, heat inactivated (HyClone Laboratories Inc., Logan, UT, cat. SH30070.03HI), 389 ng/mL hydrocortisone (Sigma-Aldrich, cat. H4001), 9.7 ng/mL human EGF recombinant protein (Invitrogen, cat. PHG0313), 23.4 microg/mL adenine (Sigma-Aldrich, cat. A2786), 97.3 U/mL penicillin-streptomycin (Invitrogen, cat. 15140122), 1.9 mM L-glutamine (Invitrogen, cat. 25030081), and 9.7 microM Y-27632 dihydrochloride (Tocris Bioscience, Bristol, United Kingdom, cat. 1254). The PDCs were cultured in complete DMEM/F12 media without 9.7 microM Y-27632 dihydrochloride for at least two passages prior to the screen. The established cell line HOP-62 was cultured in RPMI 1640 medium, HEPES (Invitrogen, cat. 22400105) with 10% defined fetal bovine serum (HyClone Laboratories Inc., cat. SH30070.03) and 2 mM L-glutamine (Invitrogen, cat. 25030081). The pooled donor HUVEC were cultured in endothelial cell growth medium 2 (PromoCell, Heidelberg, Germany, cat. C-22011) and the hMSC were cultured in mesenchymal stem cell growth medium 2 (PromoCell, cat. C-28009). […]

`COc1cc2nccc(Oc3ccc(NC(=O)C4(C(=O)Nc5ccc(F)cc5)CC4)cc3)c2cc1OC`: the viability, T/C (compound 0.0316 µM) is 76.8% [middle of 5 runs]; the viability, T/C (compound 0.1 µM) is 79% [middle of 5 runs]; the viability, T/C (compound 0.316 µM) was 70.8% [middle of 5 runs]; the viability, T/C (compound 1 µM) was 71.4% [middle of 5 runs]; the viability, T/C (compound 10 µM) was 36% [middle of 5 runs]. Also, the half-maximal inhibitory concentration (IC50) (curve of compound) was 6.87 µM [middle of 5 runs].
On to `CCN1CCN(Cc2ccc(Nc3ncc(F)c(-c4cc(F)c5nc(C)n(C(C)C)c5c4)n3)nc2)CC1` + CNCc1ccccc1-c1csc(C(C)Nc2nc(C)nc3cc(OC)c(OC)cc23)c1, for which the IC50 reads like this: (curve of first compound, second compound 0.0316 µM) above 1 µM; (curve of first compound, second compound 0.1 µM) above 1 µM; (curve of first compound, second compound 0.316 µM) above 1 µM; (curve of first compound, second compound 1 µM) above 1 µM; (curve of first compound, second compound 3.16 µM) 0.563 µM; (curve of first compound, second compound 10 µM) below 0.00316 µM. Further, the viability, T/C was 100% (second compound 0.0316 µM, first compound 0.00316 µM); 93.7% (second compound 0.0316 µM, first compound 0.01 µM); 68.7% (second compound 0.0316 µM, first compound 0.0316 µM); 96.5% (second compound 0.0316 µM, first compound 0.1 µM); 107% (second compound 0.0316 µM, first compound 0.316 µM); 140% (second compound 0.0316 µM, first compound 1 µM). The viability, T/C runs as follows: (second compound 0.1 µM, first compound 0.00316 µM) 91%; (second compound 0.1 µM, first compound 0.01 µM) 96.2%; (second compound 0.1 µM, first compound 0.0316 µM) 83%; (second compound 0.1 µM, first compound 0.1 µM) 85.6%; (second compound 0.1 µM, first compound 0.316 µM) 107%; (second compound 0.1 µM, first compound 1 µM) 155%. The viability, T/C by setting is: (second compound 0.316 µM, first compound 0.00316 µM) 78.2%; (second compound 0.316 µM, first compound 0.01 µM) 97.7%; (second compound 0.316 µM, first compound 0.0316 µM) 79.5%; (second compound 0.316 µM, first compound 0.1 µM) 92.7%; (second compound 0.316 µM, first compound 0.316 µM) 102%; (second compound 0.316 µM, first compound 1 µM) 113%. In addition, the viability, T/C reads like this: (second compound 1 µM, first compound 0.00316 µM) 54.9%; (second compound 1 µM, first compound 0.01 µM) 90.8%; (second compound 1 µM, first compound 0.0316 µM) 91.8%; (second compound 1 µM, first compound 0.1 µM) 81.4%; (second compound 1 µM, first compound 0.316 µM) 114%; (second compound 1 µM, first compound 1 µM) 119%. The viability, T/C by setting is: (second compound 3.16 µM, first compound 0.00316 µM) 83.8%; (second compound 3.16 µM, first compound 0.01 µM) 103%; (second compound 3.16 µM, first compound 0.0316 µM) 95.5%; (second compound 3.16 µM, first compound 0.1 µM) 92.8%; (second compound 3.16 µM, first compound 0.316 µM) 123%; (second compound 3.16 µM, first compound 1 µM) 0.46%. Further, the viability, T/C is 0.4% (second compound 10 µM, first compound 0.00316 µM); 0.42% (second compound 10 µM, first compound 0.01 µM); 0.47% (second compound 10 µM, first compound 0.0316 µM); 0.41% (second compound 10 µM, first compound 0.1 µM); 0.39% (second compound 10 µM, first compound 0.316 µM); 0.31% (second compound 10 µM, first compound 1 µM).

The viability, T/C is the ratio of treated to control. A word on the IC50: it is the concentration that inhibits the measured activity by half.
